Test results: patent US12105023B2, “Multi-well plate readers and methods of their use” (QUELLTX, INC., priority 2021, dated 2024)
Where two headings read alike, the source gives them in different places.

Columns and labels:
Format in all cases: cell-based
[1] = tested on: IPSC-derived cardiomyocyte; assay: Simultaneous voltage and calcium imaging in IPSC-derived cardiomyocytes; details: 10-test pulse blue stimulation protocol, 3 wells of each concentration, FIG. 41
Excerpt: A 24 objective plate reader of the invention was used to assay a 96-well plate that contained IPSC-derived cardiomyocyte expressing jRGECO1a calcium sensors, CheRiff actuators, and loaded with BeRST1 fluorescent voltage sensitive dye.
The line labeled “stim” indicates pulses of stimulating light transmitted by the plate reader to multiple wells of the 96-well plate, which caused actuation of CheRiff. This led to resulting changes in voltage and calcium ion concentrations in the cells. The resulting changes in voltage were reported by BeRST1, which was energized by red light transmitted from the plate reader. Calcium ion concentration was reported by jRGECO1, which was energized by yellow light. Thus, the plate reader was able to accurately stimulate an actuator and two reporters in multiple wells of a multi-well plate with three separate wavelengths of light. Moreover, the plate reader was able to simultaneously detect the levels of two separate emission wavelengths of light.
The voltage and calcium fluorescence waveforms in FIG. 40 show the average epoch of the 10-test pulse blue stimulation protocol.
Increasing concentration of Nifedipine altered both the voltage action potential waveform and calcium transients until it was completely extinguished at 0.3 uM.

Nav1.8 = target: T1, Nav1.8 (Homo sapiens, UniProt Q9Y5Y9); assay: Nav1.8 spiking HEK assay (optogenetic, 6-test pulse stimulation protocol)
T1 construct: expressed in transfected cells; host or cells: HEK cells co-expressing CheRiff-GFP and Kir2.1, with BeRST dye as the voltage sensor
T1 sequence (Q9Y5Y9 whole entry): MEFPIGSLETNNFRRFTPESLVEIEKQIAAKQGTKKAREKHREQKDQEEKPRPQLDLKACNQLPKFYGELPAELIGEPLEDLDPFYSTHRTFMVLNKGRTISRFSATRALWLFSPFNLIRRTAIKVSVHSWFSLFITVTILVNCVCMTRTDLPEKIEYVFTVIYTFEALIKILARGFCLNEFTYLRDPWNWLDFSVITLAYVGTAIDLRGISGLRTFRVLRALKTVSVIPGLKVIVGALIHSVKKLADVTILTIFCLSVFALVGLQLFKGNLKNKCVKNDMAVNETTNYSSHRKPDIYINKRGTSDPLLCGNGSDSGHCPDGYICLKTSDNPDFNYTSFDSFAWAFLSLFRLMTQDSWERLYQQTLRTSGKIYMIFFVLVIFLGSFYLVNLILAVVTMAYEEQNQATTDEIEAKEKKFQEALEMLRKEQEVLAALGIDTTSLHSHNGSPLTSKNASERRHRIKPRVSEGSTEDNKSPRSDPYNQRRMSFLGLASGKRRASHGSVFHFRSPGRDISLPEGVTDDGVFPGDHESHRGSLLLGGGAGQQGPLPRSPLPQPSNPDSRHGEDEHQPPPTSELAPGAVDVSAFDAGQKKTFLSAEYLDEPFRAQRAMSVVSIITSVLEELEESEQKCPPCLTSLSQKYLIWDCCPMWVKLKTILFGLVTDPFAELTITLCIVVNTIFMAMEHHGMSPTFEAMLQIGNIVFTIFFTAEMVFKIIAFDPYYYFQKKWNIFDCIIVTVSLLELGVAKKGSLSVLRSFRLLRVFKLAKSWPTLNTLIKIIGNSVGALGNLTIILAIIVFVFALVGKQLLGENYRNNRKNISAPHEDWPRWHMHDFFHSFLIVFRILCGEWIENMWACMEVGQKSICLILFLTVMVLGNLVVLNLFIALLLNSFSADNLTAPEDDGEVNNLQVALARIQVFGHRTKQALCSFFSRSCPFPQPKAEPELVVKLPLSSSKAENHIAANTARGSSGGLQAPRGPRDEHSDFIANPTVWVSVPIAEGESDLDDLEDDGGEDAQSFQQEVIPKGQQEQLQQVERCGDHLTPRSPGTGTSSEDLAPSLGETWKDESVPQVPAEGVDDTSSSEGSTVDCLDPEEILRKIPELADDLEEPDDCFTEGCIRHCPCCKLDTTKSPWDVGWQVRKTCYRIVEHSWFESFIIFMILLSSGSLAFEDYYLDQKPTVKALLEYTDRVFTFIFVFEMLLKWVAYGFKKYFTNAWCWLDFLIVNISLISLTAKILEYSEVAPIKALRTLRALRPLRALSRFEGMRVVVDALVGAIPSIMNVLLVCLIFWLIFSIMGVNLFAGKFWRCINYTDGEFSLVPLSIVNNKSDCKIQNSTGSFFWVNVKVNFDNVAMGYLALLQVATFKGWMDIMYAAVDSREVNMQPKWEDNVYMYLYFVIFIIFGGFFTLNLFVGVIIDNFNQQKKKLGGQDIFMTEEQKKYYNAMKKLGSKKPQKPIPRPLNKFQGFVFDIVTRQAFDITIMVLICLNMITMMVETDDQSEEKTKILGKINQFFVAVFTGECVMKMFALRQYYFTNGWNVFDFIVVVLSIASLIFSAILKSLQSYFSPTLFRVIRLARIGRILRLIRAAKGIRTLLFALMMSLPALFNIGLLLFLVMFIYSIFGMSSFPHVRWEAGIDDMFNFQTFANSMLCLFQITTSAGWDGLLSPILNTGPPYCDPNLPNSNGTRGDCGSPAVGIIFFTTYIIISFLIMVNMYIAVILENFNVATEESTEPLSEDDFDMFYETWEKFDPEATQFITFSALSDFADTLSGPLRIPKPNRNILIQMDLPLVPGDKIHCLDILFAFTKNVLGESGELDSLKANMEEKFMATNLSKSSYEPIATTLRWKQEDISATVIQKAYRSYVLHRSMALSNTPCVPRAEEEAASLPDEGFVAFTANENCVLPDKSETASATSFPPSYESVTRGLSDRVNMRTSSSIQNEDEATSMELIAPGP

Nav1.7 = target: T2, Nav1.7 (Homo sapiens, UniProt Q15858); assay: Nav1.7 spiking HEK assay
T2 construct: expressed in transfected cells; host or cells: HEK cells co-expressing CheRiff, Kir2.1 (lentiviral transduction) and a voltage reporter
T2 sequence (Q15858 whole entry): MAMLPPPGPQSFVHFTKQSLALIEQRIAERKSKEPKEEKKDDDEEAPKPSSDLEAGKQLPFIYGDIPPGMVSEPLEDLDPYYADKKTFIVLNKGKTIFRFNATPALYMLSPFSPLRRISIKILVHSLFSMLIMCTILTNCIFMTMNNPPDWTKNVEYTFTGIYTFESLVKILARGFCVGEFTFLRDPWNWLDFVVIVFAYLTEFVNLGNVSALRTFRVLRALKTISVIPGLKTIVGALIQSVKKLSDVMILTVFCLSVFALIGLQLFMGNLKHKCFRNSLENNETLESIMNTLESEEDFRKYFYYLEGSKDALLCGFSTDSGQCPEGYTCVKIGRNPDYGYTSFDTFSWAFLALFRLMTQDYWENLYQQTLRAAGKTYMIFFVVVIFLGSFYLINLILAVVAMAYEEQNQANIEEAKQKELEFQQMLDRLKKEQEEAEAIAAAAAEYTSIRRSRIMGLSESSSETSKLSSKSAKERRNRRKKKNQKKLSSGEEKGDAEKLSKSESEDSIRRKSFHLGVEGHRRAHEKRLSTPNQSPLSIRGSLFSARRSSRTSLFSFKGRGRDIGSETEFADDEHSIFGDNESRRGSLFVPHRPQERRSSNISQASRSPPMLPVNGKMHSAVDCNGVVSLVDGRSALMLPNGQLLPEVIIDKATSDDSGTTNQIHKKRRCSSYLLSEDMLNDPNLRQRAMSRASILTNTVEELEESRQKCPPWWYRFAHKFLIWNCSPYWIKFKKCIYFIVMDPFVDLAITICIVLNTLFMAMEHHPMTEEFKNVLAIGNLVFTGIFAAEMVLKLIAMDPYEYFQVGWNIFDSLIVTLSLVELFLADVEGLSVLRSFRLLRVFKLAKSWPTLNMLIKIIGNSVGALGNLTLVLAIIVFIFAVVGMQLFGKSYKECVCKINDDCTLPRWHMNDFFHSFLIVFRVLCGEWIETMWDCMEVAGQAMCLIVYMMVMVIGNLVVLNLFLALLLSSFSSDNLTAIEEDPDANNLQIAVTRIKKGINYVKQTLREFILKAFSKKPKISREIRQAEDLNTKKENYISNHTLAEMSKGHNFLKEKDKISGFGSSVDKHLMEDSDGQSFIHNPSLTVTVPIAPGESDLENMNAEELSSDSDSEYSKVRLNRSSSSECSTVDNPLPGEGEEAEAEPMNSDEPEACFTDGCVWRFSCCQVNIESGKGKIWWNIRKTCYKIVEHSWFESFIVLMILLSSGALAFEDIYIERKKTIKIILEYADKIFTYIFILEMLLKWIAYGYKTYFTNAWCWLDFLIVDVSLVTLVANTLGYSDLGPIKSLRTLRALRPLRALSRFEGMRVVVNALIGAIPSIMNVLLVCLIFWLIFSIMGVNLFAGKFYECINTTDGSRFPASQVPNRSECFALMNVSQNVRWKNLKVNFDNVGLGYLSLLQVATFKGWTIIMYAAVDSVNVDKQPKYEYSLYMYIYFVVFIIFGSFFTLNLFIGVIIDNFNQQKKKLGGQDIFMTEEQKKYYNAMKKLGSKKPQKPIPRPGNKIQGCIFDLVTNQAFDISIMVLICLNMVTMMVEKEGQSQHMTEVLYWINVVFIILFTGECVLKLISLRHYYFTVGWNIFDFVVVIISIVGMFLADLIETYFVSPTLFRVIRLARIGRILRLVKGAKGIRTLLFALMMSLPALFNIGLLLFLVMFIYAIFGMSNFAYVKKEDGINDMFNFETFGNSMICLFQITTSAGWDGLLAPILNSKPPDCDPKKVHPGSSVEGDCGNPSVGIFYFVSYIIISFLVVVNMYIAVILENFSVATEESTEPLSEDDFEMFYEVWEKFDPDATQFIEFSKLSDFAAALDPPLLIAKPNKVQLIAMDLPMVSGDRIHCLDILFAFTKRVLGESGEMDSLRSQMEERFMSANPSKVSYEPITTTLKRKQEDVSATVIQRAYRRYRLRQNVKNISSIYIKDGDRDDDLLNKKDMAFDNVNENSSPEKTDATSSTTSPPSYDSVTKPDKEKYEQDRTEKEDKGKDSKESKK

SMILES: COC(=O)C1=C(C)NC(C)=C(C(=O)OC)C1c1ccccc1[N+](=O)[O-] [Nifedipine]
- concentration at which voltage action potential waveform and calcium transients were completely extinguished [1]: 0.3 µM

SMILES: CNC(=O)c1ccc(-c2cc(Cl)cc(Cl)c2Cl)c(N)n1 [PF-01247324]
- IC50 (Nav1.8; Nav1.8 spiking HEK assay, dose response curves, FIG. 43D, read-out: IC50, block of Nav1.8): 130 nM
- selectivity against Nav1.7 (Nav1.8; Nav1.8 versus Nav1.7 spiking HEK assays, FIG. 43D): 40 fold
- test pulse preference of block (TP1 versus TP5) (Nav1.8; dose response curves at TP5 and TP1, FIG. 43C): preferentially blocks TP5
- test pulse at which blocker is more effective (slope of repolarization) (Nav1.8; representative traces, 6-test pulse protocol, FIG. 43B): more effective after the long pulse (TP5)

SMILES: NC1=N[C@H](O)[C@H]2[C@H]3O[C@]4(O)O[C@@H]([C@@H](O)[C@@]2(N1)[C@@H]4O)[C@]3(O)CO [TTX, Tetrodotoxin]
- test pulse preference of block (TP1 versus TP5) (Nav1.8): equivalently blocks TP1 and TP5
- selectivity for Nav1.7 (Nav1.7): more than 1,000 fold
